“And” between values parts separate entries of the source, which are not always exact repeats. Identical values can stand only once.
Tests used:
[1] = set-up: species or system rhesus macaques (Macaca mulatta); conditions: rhesus monkey, in vivo, po, 20 mg/kg
Excerpt: Blood samples were collected for clinical evaluation and pharmacokinetic (PK) analysis (see Table S2 in the supplemental material).
Details of in vivo PK studies of KDU691 and LMV599 in CD-1 mice and monkeys can be found in the supplemental material.
P. cynomolgi sporozoite production
A monkey was infected with […] P. cynomolgi M strain blood stage parasites, thawed from a first passage stock (i.e. blood stage parasites from a monkey infected with P. cynomolgi M strain sporozoites). For each batch of sporozoites needed, a single monkey was infected with P. cynomolgi blood stage parasites.
At day 11 and 12 post infection 9 mL infected blood was collected into a Lithium-heparinised tube. The blood was kept at 38°C and fed approximately 500 three to five days old female Anopheles stephensi mosquitoes Sind-Kasur strain Nijmegen (Nijmegen University Medical Centre St Radboud, Department of Medical Microbiology) using a glass feeder system as described by Ponnudurai et al.. After the second bleed, the monkey was cured by three daily intramuscular injections of 7.5 mg/kg chloroquine, monitored for parasite clearance 24 days after chloroquine treatment and returned to colony.
Mosquitoes were kept in climate chambers at 25 °C and 80% humidity and were fed 5% D -glucose on cotton pads daily. Seven days after feeding on the infected rhesus blood, oocyst numbers were determined in midguts of ten individuals, using 1% mercurochrome stain. Mosquitoes were given a second (uninfected) blood meal immediately afterwards to promote sporozoite maturation and invasion of the salivary glands. Sporozoites were isolated from the P. cynomolgi infected mosquitoes around day16 after the infected blood meal.
In vivo monkey infection and treatment procedures
Sporozoites were isolated from the P. cynomolgi infected mosquitoes around day16 after the infected blood meal. For this, mosquitoes were collected in a beaker and killed with 70% ethanol. After four washes in Leibovitz’ L15 medium containing 3% FCS and 2% pen/strep, salivary glands were dissected.
Salivary glands were kept on ice at all times, sporozoites were liberated by pottering. The sporozoites were washed with PBS, counted in a Burker-Turk chamber, and diluted to 100,000 spz/mL in PBS.
Aliquots of 1 mL were prepared and injected into monkeys via intravenous (i.v.) injection. […]
group (691-RC-high) and a control group (691-C)
KDU691 was formulated as a micro suspension in 0.5% Methylcellulose/0.5% Tween 80 in water, maximum one hour before dosing. The amount of KDU691 sufficient to treat all animals of one group was weighed, a microsuspension of 10 mg/mL in methylcellulose/tween was made and sonicated (Soniprep 150, Sanyo) with an amplitude of 12-15 µm for 15 min. The dose for each monkey was transferred to a 50 mL tube, which was vortexed extensively just before administration.
To collect samples for KDU691 PK analysis in monkeys, approximately 100 µL blood was taken from the calf vein for each time point and immediately spotted onto DBS filters (PKI Bioanalysis cards, Perkin Elmer). […]
The monkeys of the LMV599/PQ experiment were cured with a five day CQ treatment (7.5 mg/kg, i.m. administration) at the first relapse and were monitored until the second relapse after which they were cured with CQ (7.5 mg/kg, intramuscular (i.m.) for five days) plus PQ (1.8 mg/kg for 14 days). […]

[2] = system: P. cynomolgi developing EEFs (liver schizonts) in primary rhesus hepatocytes; assay: In vitro liver-stage drug assay with P. cynomolgi, large forms (developing EEFs / liver schizonts); assay type: cell-based, Plasmodium cynomolgi; conditions: compound exposure 6 days, mean of several (9) independent assays, read-out: IC50 against developing EEFs / liver schizonts (large forms)
Method: In vitro infections of primary rhesus hepatocytes with P. cynomolgi sporozoites were performed according to methods described previously by Zeeman et al. ([10]). At day 6 postinfection (p.i.), the assay mixtures were fixed and stained with anti-P. cynomolgi Hsp70 rabbit antiserum and a fluorescein isothiocyanate (FITC)-labeled secondary antibody (goat anti-rabbit). Plates were analyzed with the Operetta high-content imaging system, differentially counting hypnozoites and developing extraerythrocytic forms (EEFs), based on parasite size ([10]).
In vitro activity against P. cynomolgi liver stages was determined for both compounds. The numbers of small (hypnozoites) and large (developing EEFs) parasites were determined by using Operetta and image analysis of primary rhesus hepatocyte cultures infected with P. cynomolgi sporozoites and exposed to the compound for 6 days ([10]). […] IC50s were determined by using the least-squares nonlinear regression method (Prism) for small and large parasites. Data from several independent experiments were used to calculate the IC50s for the two compounds.

SMILES: CNC(=O)c1ccc(-c2cnc3cnc(C(=O)N(C)c4ccc(Cl)cc4)cn23)cc1 [KDU691]
- % fT > TRE [1]: 16.7%
- AUC [1]: 38.82 µM·h
- Cmax [1]: 4.31 µM
- fAUC/TRE [1]: 13.08
- fCmax/TRE [1]: 1.45
- IC50 [2]: 61 nM and 60 nM

Source: article PMC4862498, “PI4 Kinase Is a Prophylactic but Not Radical Curative Target in Plasmodium vivax-Type Malaria Parasites” (Antimicrobial Agents and Chemotherapy, 2016)
